In patent US20070031341A1, “Methods of delivering therapeutics to the brain” (priority 2005, published 2007):

What was measured:
[1] = cited from earlier work
[2] = pKa and protonated cationic fraction of lubeluzole; format: physicochemical
Source text: Because lubeluzole has a PKa of 7.6 it is present in its protonated cationic form at pHs less than 7.6. For example, at pHs of 7.4 and 6.0, about 61% and 97% of lubeluzole is respectively present in its protonated cationic form. Therefore, the skilled artisan can expect a significant amount of lubeluzole to be present in its cationic form at relatively mild pHs and particularly at the pHs of physiologic CSF (˜7.5). Moreover, support for the transport of benzothiazole derivatives is found in the literature. Levamisole is believed to be a benzothiazole derivativethat has been transdermally transported iontophoretically in order to treat herpes simplex virus and recurrent aphthous stomatitis.

[3] = tested on: cerebellar granule cells exposed to MPP+ neurotoxin; details: 100 μM Vitamin E; about 50% without; cited from earlier work

| Molecule | PKa [1] | lubeluzole present in its protonated cationic form ([2]; pH 6.0) [%] | lubeluzole present in its protonated cationic form ([2]; pH 7.4) | in vitro viability of cerebellar granule cells exposed to MPP+ [3] |
| --- | --- | --- | --- | --- |
| CN(c1nc2ccccc2s1)C1CCN(C[C@H](O)COc2ccc(F)c(F)c2)CC1 [lubeluzole] | 7.6 | ~97 | about 61% |  |
| Vitamin E |  |  |  | about 85% |
